Patent US20250382298A1, “NITROGEN-CONTAINING COMPOUND AND USE THEREOF” (SUZHOU GENHOUSE BIO CO., LTD., priority 2022, published 2025)

Assays:
[1] = Stability test in human liver microsomes; format: in vitro ADME, humans; conditions: human liver microsomes 0.5 mg/mL, 1.0 μM substrate; for CLint scaled at 1 μM / half-life at 1 μM: pH 7.4; for CLint scaled at 1 μM: read-out: HLM 0.5 CLint(liver); for half-life at 1 μM: read-out: HLM 0.5 T½
Protocol: The phase I metabolic stability of the compounds in liver microsomes of CD-1 mice, Sprague-Dawley rats, beagle dogs, cynomolgus monkeys, and humans was assessed.
The animal and human liver microsomes used in the test system were purchased from Xenotech, Corning, or other qualified suppliers and stored in a freezer at a temperature below −60° C. prior to use.
The test samples and control compounds were separately incubated with animal and human liver microsomes at 37±1° C. for a period of incubation time up to 60 min. The samples were removed at the indicated time points, and the reaction was stopped with acetonitrile or another organic solvent containing an internal standard. After centrifugation, the resulting supernatants were assayed by the liquid chromatography-tandem mass spectrometry (LC-MS/MS) method.
73.21 g of dipotassium hydrogen phosphate trihydrate and 10.78 g of potassium dihydrogen phosphate were dissolved in 4000 mL of ultrapure water. The solution was adjusted to pH 7.40±0.10 with 10% phosphoric acid or 1 M potassium hydroxide to make a final concentration of 100 mM.
The test sample powder was prepared into a stock solution at a certain concentration with DMSO or another organic solvent, which was then further diluted with a suitable organic solvent.
Microsomes of each species were diluted into a 2× working solution with a 100 mM potassium phosphate buffer. The final concentration of the microsomes in the reaction system was 0.5 mg/mL.
An appropriate amount of nicotinamide adenine dinucleotide phosphate (NADP) and isocitric acid (ISO) powder was weighed out, dissolved in a magnesium chloride solution, and shaken and mixed well. An appropriate amount of isocitrate dehydrogenase (IDH) was added, and the mixture was mixed well by gently turning upside down. The final concentrations in the reaction system were: 1 mM NADP, 1 mM magnesium chloride, 6 mM ISO, and 1 unit/mL IDH.
The stop solution was prepared with acetonitrile or another organic solvent containing an internal standard (tolbutamide or another suitable compound). The prepared stop solution was stored in a freezer at 2-8° C.
Incubation was performed in a 96-well plate. Eight incubation plates were prepared and designated T0, T5, T15, T30, T45, T60, Blank60, and NCF60, respectively. The first 6 plates corresponded to reaction time points of […], respectively. No test sample or control compound was added to the Blank60 plate, and samples were taken after 60 min of incubation. In the NCF60 plate, incubation was performed for 60 min using the potassium phosphate buffer instead of the NADPH regeneration system solution. Three replicates were made for samples in all conditions.
The microsomes and the test sample or control compound were mixed, and then the incubation plates Blank60, T5, T15, T30, T45, and T60 except for TO and NCF60 were placed in a 37° C. water bath for pre-incubation for about 10 min. In the incubation plate T0, a stop solution was first added, followed by addition of the NADPH regeneration system working solution, and 98 μL of the potassium phosphate buffer was added to each sample well of the incubation plate NCF60 to initiate the reaction. After the pre-incubation of the incubation plates Blank60, T5, T15, T30, T45, and T60 was completed, 98 μL of the NADPH regeneration system working solution was added to each sample well to initiate the reaction. The reaction temperature was 37±1° C., the final volume of the reaction was 200 μL, and the reaction system included 0.5 mg/mL microsomes, 1.0 μM substrate, 1 mM NADP, 6 mM ISO, and 1 unit/ml IDH.
At 5 min, 15 min, […], 45 min, and 60 min, a cold stop solution containing an internal standard was added to the reaction plate to stop the reaction.
All the reaction plates after the reaction was stopped were shaken well and centrifuged at 3220×g at 4° C. for 20 min. After the supernatant was diluted at a certain ratio, LC-MS/MS analysis was performed. […]

[2] = Pharmacokinetic test in mice; format: in vivo; conditions: BALB/c mice; for AUC / Cmax / half-life: mouse, plasma; for half-life: read-out: t½ (converted)
Protocol: In this example, the pharmacokinetic behavior of the compounds after intravenous injection (IV) and intragastric (PO) administration in BALB/c mice was tested.
(§1) On the day of administration, mice were weighed for actual body weight and the administration volume was calculated. Each compound was tested in two groups with 9 mice in each group; one group was subjected to administration by single intravenous injection, and the other group of mice was subjected to single intragastric administration. Whole blood samples were collected via the orbit at prescribed time points (0.25 h, 0.5 h, 1 h, 2 h, 4 h, 8 h, and 24 h after administration). After blood sample collection, the samples were immediately transferred to labeled commercial sample tubes containing K2-EDTA (0.85-1.15 mg), followed by centrifugation (3200×g, 4° C., 10 min) and plasma collection. The plasma was transferred to a pre-cooled centrifuge tube, frozen in dry ice, and then stored in an ultra-low temperature freezer at −60° C. or lower until the LC-MS/MS analysis.
(§2) Plasma concentrations were determined by the LC-MS/MS method. Plasma drug concentration data for the compounds were processed using a non-compartmental model in the WinNonlin Version 6.3 (Pharsight, Mountain View, CA) pharmacokinetic software. The relevant pharmacokinetic parameters were calculated by a linear-log trapezoidal method.

[3] = Pharmacokinetic test in rats; format: in vivo; conditions: SD rats; for AUC / Cmax / half-life: rat, plasma; for half-life: read-out: t½ (converted)
Protocol: In this example, the pharmacokinetic behavior of the compounds after intravenous injection (IV) and intragastric (PO) administration in SD rats was tested.
as §1, with “rats” for “mice”, “3 rats” for “9 mice”, “group” for “group of mice”, “jugular vein” for “orbit”
as §2

[4] = target: cytochrome oxidase P450 2C9 (Homo sapiens (Human), UniProt P11712); experiment: Inhibition of cytochrome oxidase P450 2C9; format: in vitro ADME; conditions: liver microsomes, CYP2C9
Chain of cytochrome oxidase P450 2C9 (P11712 whole entry): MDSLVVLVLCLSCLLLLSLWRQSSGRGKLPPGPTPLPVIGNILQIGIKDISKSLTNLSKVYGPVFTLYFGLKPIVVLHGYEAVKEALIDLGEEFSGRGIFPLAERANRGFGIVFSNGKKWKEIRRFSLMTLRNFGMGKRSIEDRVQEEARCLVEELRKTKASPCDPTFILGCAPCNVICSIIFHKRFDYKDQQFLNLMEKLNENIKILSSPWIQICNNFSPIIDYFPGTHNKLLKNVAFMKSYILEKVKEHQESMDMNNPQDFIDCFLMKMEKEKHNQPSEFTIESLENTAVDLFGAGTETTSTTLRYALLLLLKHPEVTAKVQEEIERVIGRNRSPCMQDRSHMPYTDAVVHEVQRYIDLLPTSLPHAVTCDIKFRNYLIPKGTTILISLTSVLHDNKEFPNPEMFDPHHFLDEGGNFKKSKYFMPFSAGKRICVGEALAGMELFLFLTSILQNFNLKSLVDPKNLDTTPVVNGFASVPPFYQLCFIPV
Protocol: 100 mM K-Buffer: 9.5 mL of stock solution A was mixed with 40.5 mL of stock solution B, the total volume was adjusted to 500 mL with ultrapure water, and the buffer was titrated to pH 7.4 with KOH or H3PO4. The test compound powder was prepared into a stock solution at a certain concentration with DMSO or another organic solvent, which was then further diluted with a proper organic solvent. The liver microsomal in vitro incubation system for the CYP450 enzyme metabolism phenotype study was a biochemical reaction of prepared liver microsomes supplemented with a redox coenzyme and an enzyme-specific selective inhibitor under simulated physiological temperature and environment conditions. The concentration of the parent drug or a metabolite thereof in the incubation solution was determined by LC-MS/MS.

CLint scaled at 1 μM [1] [mL/min/kg]	half-life at 1 μM [1] [h]	F ([2]; PO @5mpk) [%]	AUC ([2]; 5 mg/kg, PO @5mpk) [µM·h]	Cmax ([2]; 5 mg/kg, PO @5mpk) [nM]	half-life ([2]; 5 mg/kg, PO @5mpk) [h]	F ([3]; PO @5mpk) [%]	AUC ([3]; 5 mg/kg, PO @5mpk) [µM·h]	Cmax ([3]; 5 mg/kg, PO @5mpk) [nM]	half-life ([3]; 5 mg/kg, PO @5mpk) [h]	IC50 [4] [µM]	Structure (SMILES)	further results
< 8.6	> 2.42	97	6.87	1610	1.2	16	1.56	303	5.9	2.66	O=C(Nc1cn2ccnc2c(N2CCC(F)(F)CC2)n1)c1ccc(NS(=O)(=O)CCO)cc1N1CCC2(CC1)CC2 [Compound 8]	–
< 8.6	> 2.42	79	17.8	1770	3.4	27	9.67	540	22.8	–	O=C(Nc1cc2ccsc2c(N2CCC(F)(F)CC2)n1)c1ccc(NS(=O)(=O)CCO)cc1N1CCC2(CC1)CC2 [Compound 15]	–
14.3	2.02	–	–	–	–	–	–	–	–	0.18	CS(=O)(=O)Nc1ccc(C(=O)Nc2cc3cc[nH]c3c(N3CCC(F)(F)CC3)n2)c(N2CCC3(CC2)CC3)c1 [Compound 47]	–
–	–	87	74.8	4250	44.5	57	16.2	1330	7	–	Cc1cc(NC(=O)c2ccc(NS(=O)(=O)CCO)cc2N2CC3CCC(C3)C2)nc(N2CCC(F)(F)CC2)n1 [Compound 3]	–
< 8.6	> 2.42	44	13.5	1550	4.7	23	8.92	509	55.8	5.28	O=C(Nc1cc2ccccc2c(N2CCC(F)(F)CC2)n1)c1ccc(NS(=O)(=O)CCO)cc1N1CCC2(CC1)CC2 [Compound 6]	–
1.9	15.3	257	70.1	6390	3.7	–	–	–	–	4.46	O=C(Nc1cn2c(F)cnc2c(N2CCC(F)(F)CC2)n1)c1ccc(NS(=O)(=O)CCO)cc1N1CCC2(CC1)CC2 [Compound 34]	F ([2]; PO @30mpk): 147%; AUC ([2]; 30 mg/kg, PO @30mpk): 220 µM·h; Cmax ([2]; 30 mg/kg, PO @30mpk): 15200 nM; half-life ([2]; 30 mg/kg, PO @30mpk): 9.6 h; F ([3]; PO @30mpk): 25.7%; AUC ([3]; 30 mg/kg, PO @30mpk): 62.5 µM·h; Cmax ([3]; 30 mg/kg, PO @30mpk): 3430 nM; half-life ([3]; 30 mg/kg, PO @30mpk): 66.3 h
< 8.6	> 2.42	–	–	–	–	–	–	–	–	–	CS(=O)(=O)Nc1ccc(C(=O)Nc2cn3ccnc3c(N3CCC(F)(F)CC3)n2)c(N2CCC3(CC2)CC3)c1 [Compound 10]	–
< 8.6	> 2.42	–	–	–	–	–	–	–	–	–	O=C(Nc1cn2ncnc2c(N2CCC(F)(F)CC2)n1)c1ccc(NS(=O)(=O)CCO)cc1N1CCC2(CC1)CC2 [Compound 23]	–
–	–	–	–	–	–	–	–	–	–	–	O=C(Nc1cn2cnnc2c(N2CCC(F)(F)CC2)n1)c1ccc(NS(=O)(=O)CCO)cc1N1CCC2(CC1)CC2 [Compound 24]	HLM 0.5 CLint(liver) [1]: 9.4 mL/min/kg; HLM 0.5 T½ [1]: 2.22 h
22.3	0.933	–	–	–	–	25	1.92	351	6.4	–	O=C(Nc1cc2c(c(N3CCC(F)(F)CC3)n1)COC2)c1ccc(NS(=O)(=O)CCO)cc1N1CCC2(CC1)CC2 [Compound 14]	–
< 8.6	> 2.42	107	60.9	4170	4	24.7	33.9	2090	10.6	> 10	O=C(Nc1cc2cccnc2c(N2CCC(F)(F)CC2)n1)c1ccc(NS(=O)(=O)CCO)cc1N1CCC2(CC1)CC2 [Compound 21]	F ([2]; PO @30mpk): 61%; AUC ([2]; 30 mg/kg, PO @30mpk): 207 µM·h; Cmax ([2]; 30 mg/kg, PO @30mpk): 15300 nM; half-life ([2]; 30 mg/kg, PO @30mpk): 5.4 h
–	–	116	13.3	2690	3.3	39	3.2	582	4.9	–	O=C(Nc1cn2ccnc2c(N2CCC(F)(F)CC2)n1)c1ccc(NS(=O)(=O)CCO)cc1N1CC2CCC(C2)C1 [Compound 17]	–
–	–	–	–	–	–	–	–	–	–	–	O=C(Nc1cc2cc[nH]c2c(N2CCC(F)(F)CC2)n1)c1ccc(NS(=O)(=O)CCO)cc1N1CCC2(CC1)CC2 [Compound 22]	F ([2]; PO @30mpk): 218%; AUC ([2]; 30 mg/kg, PO @30mpk): 79.8 µM·h; Cmax ([2]; 30 mg/kg, PO @30mpk): 14600 nM; half-life ([2]; 30 mg/kg, PO @30mpk): 10 h
11.6	1.79	101	58.3	3920	14.9	63	20.5	1240	12.2	9.38	CS(=O)(=O)Nc1ccc(C(=O)Nc2cn3ccnc3c(N3CCC(F)(F)CC3)n2)c(N2CC3CCC(C3)C2)c1 [Compound 19]	F ([2]; PO @30mpk): 92%; AUC ([2]; 30 mg/kg, PO @30mpk): 320 µM·h; Cmax ([2]; 30 mg/kg, PO @30mpk): 15300 nM; half-life ([2]; 30 mg/kg, PO @30mpk): 16.5 h
